Like-named read-outs stand apart in the source and are kept apart here.
Tests used:
5-HT1A receptor [1] = target: T1, 5-HT1A receptor (Rattus norvegicus, UniProt P19327); assay: 5-HT syndrome (serotoninergic syndrome) in the male rat; assay type: in vivo, male rat (Sprague-Dawley); design: carried out with the male rat (Sprague-Dawley); from tissue; host or cells: whole living rat (Sprague-Dawley); details: po
T1 sequence (P19327 1-422): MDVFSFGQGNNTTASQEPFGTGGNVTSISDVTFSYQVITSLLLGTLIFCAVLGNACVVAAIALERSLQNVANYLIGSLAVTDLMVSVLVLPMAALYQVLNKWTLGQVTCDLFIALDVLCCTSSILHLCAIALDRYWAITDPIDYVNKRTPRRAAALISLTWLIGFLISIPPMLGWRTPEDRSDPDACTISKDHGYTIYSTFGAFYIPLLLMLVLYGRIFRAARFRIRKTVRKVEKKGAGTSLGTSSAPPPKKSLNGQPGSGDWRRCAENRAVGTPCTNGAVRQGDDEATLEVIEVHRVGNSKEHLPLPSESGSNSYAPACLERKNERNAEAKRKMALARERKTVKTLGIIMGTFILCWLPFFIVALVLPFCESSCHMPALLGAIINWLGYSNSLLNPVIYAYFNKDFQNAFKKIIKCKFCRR
Description: The central activity of the compounds of the invention was evaluated by their ability to provoke the 5-HT syndrome, which is characterized by:
an alternating bending and stretching of the forepaws (reciprocal fore-paw treading: FPT)
the retraction of the lower lip (lower lip retraction: LLR)
a position or the ventral surface of the animal is in contact with the ground and the hind paws extended (flat body posture: FBP).
The experiments on the evaluation of the 5-HT syndrome are carried out with the male rat (Sprague-Dawley) according to the technique described by F. C. Colpaert et al. (Drug. Dev. Res., 26, 21-48, 1992) and M. S. Kleven et al. (J.P.E.T., 282, 747-759, 1997).

5-HT1A receptor [2] = target: T1, 5-HT1A receptor; assay: Binding to the 5-HT1A receptor (displacement of [3H]8-OH-DPAT, rat cortex); design: Brains from male Sprague-Dawley 180-200 g rats; tissue Iffa Credo, France (animals); host or cells: rat brain cortex; species or system male Sprague-Dawley rat; details: read-out: pKi 5-HT1A (converted)
Description: (§1) Binding to the 5-HT1A, D2 dopaminergic and α1-adrenergic receptors:
(§2) Brains from male Sprague-Dawley 180-200 g rats [Ico: OFA SD (I.O.P.S. Caw); Iffa Credo, France], maintained at -70° C., were used in all the studies.
(§3) The affinity of the products for the various receptors was determined by displacement of radioactive ligands under the conditions summarized in Table 1.
(§4) The reaction is halted by rapid filtration, under vacuum, through Whatman GF/B filters and the tubes are rinsed with 2×5 ml of Tris-HCl 50 mM, pH 7.4, buffer at 25° C. The radioactivity collected on the filter is analyzed by liquid scintillation after addition of 4 ml of liquid scintillant (Emulsifier Safe, Packard). All the experiments are carried out in triplicate.
(§5) The inhibition constants (Ki) of the products are estimated from the displacement experimentations by using the EBDA (equilibrium binding data analysis) Radlig Version 4 non linear regression program (Biosoft, Cambridge, UK; McPherson, 1985).
(§6) The pKi (-log Ki) values are given in the form of the mean±SEM of at least 3 experimentations (Table 2).
10 A Assie and Koek, Eur. J.

α1-adrenergic receptor = assay: Binding to the α1-adrenergic receptor (displacement of [3H]prazosin, rat cortex); design: species or system male Sprague-Dawley rat; details: mean of at least 3 experimentations
Description: as §1, §2, §3, §4, §6

[3] = Antidepressant activity: Forced swimming test; assay type: in vivo; details: percentage of animals with significant decrease (p<0.05) in immobility time vs control; po
D2 dopaminergic receptor = target: T2, D2 dopaminergic receptor (Rattus norvegicus, UniProt P61169); assay: Binding to the D2 dopaminergic receptor (displacement of [3H]YM-09151-2, rat striatum); design: species or system male Sprague-Dawley rat; details: read-out: pKi D2 (converted)
T2 construct: Brains from male Sprague-Dawley 180-200 g rats; tissue Iffa Credo, France (animals); host or cells: rat brain striatum
Description: as §1, §2, §3, §4, §5, §6

[4] = FBP, read-out: ED50 FBP (flat body posture)
[5] = FPT, read-out: ED50 FPT (reciprocal fore-paw treading)
[6] = LLR, read-out: ED50 LLR (lower lip retraction)

T2 sequence (P61169 whole entry): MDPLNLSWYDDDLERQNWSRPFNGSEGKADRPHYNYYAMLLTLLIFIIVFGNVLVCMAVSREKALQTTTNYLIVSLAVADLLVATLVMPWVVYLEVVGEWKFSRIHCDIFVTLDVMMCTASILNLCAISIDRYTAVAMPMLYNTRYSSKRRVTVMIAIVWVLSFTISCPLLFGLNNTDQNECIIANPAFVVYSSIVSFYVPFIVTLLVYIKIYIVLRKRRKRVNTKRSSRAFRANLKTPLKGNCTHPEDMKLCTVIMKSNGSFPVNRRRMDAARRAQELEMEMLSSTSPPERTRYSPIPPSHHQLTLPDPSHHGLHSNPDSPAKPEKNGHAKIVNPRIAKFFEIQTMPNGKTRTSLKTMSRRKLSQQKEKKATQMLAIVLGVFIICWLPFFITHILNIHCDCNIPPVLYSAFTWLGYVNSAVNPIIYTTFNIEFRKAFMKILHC

SMILES | ED50 (5-HT1A receptor [1]; [4]) | ED50 (5-HT1A receptor [1]; [5]) | ED50 (5-HT1A receptor [1]; [6]) | Ki (5-HT1A receptor [2]) | pKi α1 (α1-adrenergic receptor) | ED50 [3] | Ki (D2 dopaminergic receptor)
Cn1ncc(O[C@H]2CC[C@H](NCC3COc4ccccc4O3)CC2)nc1=O (relative stereo) [Compound 16, Trans-5-[4-[(2,3-Dihydrobenzo[1,4]Dioxin-2-Ylmethyl)Amino]Cyclohexyloxy]-2-Methyl-2H-[1,2,4]Triazin-3-One] | 0.31 mg/kg | > 2.5 mg/kg | 0.08 mg/kg | 0.166 nM |  |  | 
O=C1CC2(CCCC2)CC(=O)N1CCCCN1CCN(c2ncccn2)CC1 [Buspirone, reference compound] |  | > 40 mg/kg | 2.5 mg/kg |  | 6.19 | > 160 mg/kg | 
Cn1c(=O)cnn([C@H]2CC[C@H](N3CCN(c4ncccn4)CC3)CC2)c1=O [Compound 4, Trans-4-Methyl-2-[4-(4-Pyrimidin-2-Yl-Piperazin-1-Yl)Cyclohexyl]-2H-[1,2,4]Triazine-3,5-Dione] | 1.25 mg/kg | 1.25 mg/kg | 0.31 mg/kg | 3.72 nM | < 5.0 | 1.25 mg/kg | > 10000 nM
Cc1cc(C)nc(N2CCN([C@H]3CC[C@H](n4ncc(=O)n(C)c4=O)CC3)CC2)n1 [Compound 5, trans-4-Methyl-2-[4-[4-(4,6-dimethylpyrimidin-2-yl)piperizin-1-yl]cyclohexyl]-2H-[1,2,4]triazine-3,5-dione] | 0.08 mg/kg | 0.08 mg/kg | < 0.04 mg/kg | 0.603 nM | 5.89 | 0.31 mg/kg | > 10000 nM
Cc1ccnc(N2CCN([C@H]3CC[C@H](n4ncc(=O)n(C)c4=O)CC3)CC2)n1 [Compound 6, Trans-4-Methyl-2-[4-[4-(4-Methylpyrimidin-2-Yl)Piperazin-1-Yl]Cyclohexyl]-2H-[1,2,4]triazine-3,5-dione] | 0.08 mg/kg | 0.08 mg/kg | 0.08 mg/kg | 0.813 nM | 6.10 |  | > 10000 nM
Cn1ncc(O[C@H]2CC[C@H](N3CCN(c4ncccn4)CC3)CC2)nc1=O [Compound 9, trans-2-Methyl-5-[4-(4-pyrimidin-2-yl-piperizin-1-yl)cyclohexyloxy]-2H-[1,2,4]triazin-3-one] | 0.08 mg/kg | 0.31 mg/kg | 0.08 mg/kg | 0.708 nM | < 5.0 | 0.31 mg/kg | > 10000 nM
Cc1ccnc(N2CCN([C@H]3CC[C@H](Oc4cnn(C)c(=O)n4)CC3)CC2)n1 [Compound 10, trans-2-Methyl-5-[4-[4-(4-methylpyrimidin-2-yl)piperazin-1-yl]cyclohexyloxy]-2H-[1,2,4]triazin-3-one] | 0.08 mg/kg | 0.08 mg/kg | 0.02 mg/kg | 0.251 nM | 5.95 | 0.08 mg/kg | > 10000 nM
Cc1cc(C)nc(N2CCN([C@H]3CC[C@H](Oc4cnn(C)c(=O)n4)CC3)CC2)n1 [Compound 11, Trans-2-Methyl-5-[4-[4-(4,6-Dimethyl-Pyrimidin-2-Yl)Piperazin-1-Yl]Cyclohexyloxy]-2H-[1,2,4]triazin-3-one] | 0.02 mg/kg | 0.08 mg/kg | 0.02 mg/kg | 0.251 nM | 5.72 | 0.08 mg/kg | > 10000 nM
Cn1ncc(O[C@H]2CC[C@H](N3CCN(c4nccc(Cl)n4)CC3)CC2)nc1=O [Compound 12, Trans-2-Methyl-5-[4-[4-(4-Chloropyrimidin-2-Yl)Piperazin-1-Yl]Cyclohexyloxy]-2H-[1,2,4]Triazin-3-One] | 0.08 mg/kg | 0.08 mg/kg | 0.08 mg/kg | 0.288 nM | 6.21 | 0.74 mg/kg | > 10000 nM
COc1ccnc(N2CCN([C@H]3CC[C@H](Oc4cnn(C)c(=O)n4)CC3)CC2)n1 [Compound 13, Trans-2-Methyl-5-[4-[4-(4-Methoxypyrimidin-2-Yl)Piperazin-1-yl]Cyclohexyloxy]-2H-[1,2,4]triazin-3-One] | 0.31 mg/kg | 0.31 mg/kg | 0.08 mg/kg | 0.525 nM | 6.65 |  | > 10000 nM
Cn1ncc(O[C@H]2CC[C@H](N3CCN(c4nccc(C(F)(F)F)n4)CC3)CC2)nc1=O [Compound 14, Trans-2-Methyl-5-[4-[4-(4-Trifluoro-Methylpyrimidin-2-Yl)Piperazin-1-Yl]Cyclohexyloxy]-2H-[1,2,4]Triazin-3-One] | 0.31 mg/kg | 0.31 mg/kg | 0.08 mg/kg |  |  |  | 
Cn1ncc(O[C@H]2CC[C@H](N3CCN(c4ncc(F)cn4)CC3)CC2)nc1=O [Compound 15, Trans-2-Methyl-5-[4-[4-(5-Fluoropyrimidin-2-Yl)Piperazin-1-yl]Cyclohexyloxy]-2H-[1,2,4]Triazin-3-One] | 1.25 mg/kg | > 2.5 mg/kg | 0.31 mg/kg |  |  |  | 
Cn1nc(N[C@H]2CC[C@H](N3CCN(c4cccc(Cl)c4)CC3)CC2)c(=O)n(C)c1=O [Compound 17, trans-6-{4-[4-(3-Chlorophenyl)piperazin-1-yl]cyclohexylamino}-2,4-dimethyl-2H-[1,2,4]triazine-3,5-dione] |  |  |  | 0.398 nM | 7.74 |  | 603 nM
Cn1nc(N(C)[C@H]2CC[C@H](N3CCN(c4cccc(Cl)c4)CC3)CC2)c(=O)n(C)c1=O [Compound 19, Trans-6-({4-[4-(3-Chlorophenyl)Piperazin-1-Yl]Cyclohexyl}Methylamino)-2,4-Dimethyl-2H-[1,2,4]Triazine-3,5-Dione] |  |  |  | 0.195 nM | 7.86 |  | > 10000 nM
O=C(NCCN1CCN(c2cccc3c2OC[C@H](CO)O3)CC1)c1ccc(F)cc1 [Flesinoxan, reference compound] | 1.25 mg/kg | 5 mg/kg | 1.25 mg/kg | 1.23 nM | 6.50 | 1.25 mg/kg | 89.1 nM
